Results taken from US11096923B2, “Pharmaceutical composition containing polymyxin B/trimethoprim based therapeutics” (University of Rochester, priority 2016, dated 2021).
Where “and” joins values, the source holds several entries; their conditions need not be identical. Equal values may be shown once.

What was measured:
P. aeruginosa = experiment: Fractional inhibitory concentration, checkerboard MIC; type: cell-based, Pseudomonas aeruginosa; settings: for MIC in combination: PT combined with tobramycin; for MIC: Pseudomonas aeruginosa
S. aureus = experiment: as above; type: cell-based, Staphylococcus aureus; settings: for MIC in combination: PT combined with tobramycin; for MIC: Staphylococcus aureus
P. aeruginosa PAO1 = experiment: Selleck library screen in presence of sub-inhibitory polymyxin B/trimethoprim; type: cell-based, Pseudomonas aeruginosa; parameters: key: Growth (+); no growth (−)
[1] = tested on: P. aeruginosa strain PA01 biofilms; experiment: Biofilm susceptibility; type: cell-based, Pseudomonas aeruginosa; settings: established PA01 biofilm, 24 hrs treatment, 32×MIC
Description: (§1) Bacterial strains used in these studies include the conventional laboratory strains Pseudomonas aeruginosa PA01 and Staphylococcus aureus UAMS-1, both of which are antibiotic susceptible and capable of forming robust biofilms. See […], Thomas J R, Nelson […]. Role of the accessory gene regulator (agr) in pathogenesis of staphylococcal osteomyelitis. Infection and immunity 1995; 63:3373-3380. Seven clinical keratitis isolates of Pseudomonas aeruginosa, were collected from the Flaum Eye Institute, Rochester N.Y. and 25 clinical isolates of Staphylococcus aureus from geographically distinct regions of the country where purchased from International Health Management Associates (IHMA; Schaumburg, Ill.). […] After 24 hrs the remaining media and non-adherent cells were removed, biofilms were suspended in 0.8% NaCl and plated to quantify surviving bacteria. […] Biofilms were treated in increasing increments ranging from 0 to 64×MIC.

[2] = tested on: S. aureus UAMS-1 biofilms; experiment: Biofilm susceptibility; type: cell-based, Staphylococcus aureus; settings: established S. aureus biofilm, any concentration tested
Description: as §1, with “Ill.). For experiments requiring planktonic cultures, the indicated organism was grown overnight in Luria-Bertani broth (LB; […] Biofilms were established by inoculating individual wells of flat-bottom polystyrene plates (Falcon, Corning Life Sciences; Durham, N.C.) with overnight cultures of the indicated organism into 200 ul of fresh LB to a final concentration of 1×10^7 CFU ml^-1. Plates were placed in a 37° C.-humidified incubator for 72 hours to allow static biofilm formation. Non-adherent cells were aspirated and biofilms were washed twice with phosphate-buffered saline prior to each experiment.” for “Ill.).”

[3] = tested on: planktonic P. aeruginosa cells; experiment: Antimicrobial kill curves; type: cell-based, Pseudomonas aeruginosa; settings: 2× MIC
Experimental: Overnight cultures of the indicated organism were used to inoculate (1:100 dilution) 100 ml of fresh media and grown to mid-exponential phase. […] Aliquots were taken at 1, 2, 3, 4, and 24 hours, serial diluted and plated for colony forming units.

NC[C@H]1O[C@H](O[C@H]2[C@H](O)[C@@H](O[C@H]3O[C@H](CO)[C@@H](O)[C@H](N)[C@H]3O)[C@H](N)C[C@@H]2N)[C@H](N)C[C@@H]1O [Tobramycin, tobramycin]
MIC in combination (P. aeruginosa; P. aeruginosa PAO1): 0.12 µg/mL and 0.24 µg/mL | MIC in combination (P. aeruginosa; P. aeruginosa RW01): 0.12 µg/mL | MIC in combination (P. aeruginosa; P. aeruginosa RW02): 0.06 µg/mL | MIC in combination (P. aeruginosa; P. aeruginosa RW03): 0.12 µg/mL | MIC in combination (P. aeruginosa; P. aeruginosa RW04): 0.12 µg/mL | MIC in combination (P. aeruginosa; P. aeruginosa RW05): 0.24 µg/mL | MIC in combination (P. aeruginosa; P. aeruginosa RW06): 0.12 µg/mL | MIC in combination (P. aeruginosa; P. aeruginosa RW07): 0.12 µg/mL | MIC (P. aeruginosa; P. aeruginosa RW01): 0.24 µg/mL | MIC (P. aeruginosa; P. aeruginosa RW02): 0.24 µg/mL | MIC (P. aeruginosa; P. aeruginosa RW03): 0.24 µg/mL | MIC (P. aeruginosa; P. aeruginosa RW04): 0.48 µg/mL | MIC (P. aeruginosa; P. aeruginosa RW05): 0.48 µg/mL | MIC (P. aeruginosa; P. aeruginosa RW06): 0.24 µg/mL | MIC (P. aeruginosa; P. aeruginosa RW07): 0.24 µg/mL | MIC (P. aeruginosa; PAO1, P. aeruginosa PAO1): 0.48 µg/mL | MIC in combination (S. aureus; S. aureus 1071788): 0.48 µg/mL | MIC in combination (S. aureus; S. aureus 1094094): 3.9 µg/mL | MIC in combination (S. aureus; S. aureus 1094140): 1.9 µg/mL | MIC in combination (S. aureus; S. aureus 1094147): 3.9 µg/mL | MIC in combination (S. aureus; S. aureus 1094166): 0.48 µg/mL | MIC in combination (S. aureus; S. aureus 1094178): 7.8 µg/mL | MIC in combination (S. aureus; S. aureus 1097612): 3.9 µg/mL | MIC in combination (S. aureus; S. aureus 1097630): 3.9 µg/mL | MIC in combination (S. aureus; S. aureus 1101442): 0.97 µg/mL | MIC in combination (S. aureus; S. aureus 1103430): 0.48 µg/mL | MIC in combination (S. aureus; S. aureus 1110936): 0.48 µg/mL | MIC in combination (S. aureus; S. aureus 1111063): 3.9 µg/mL | MIC in combination (S. aureus; S. aureus 1122181): 3.9 µg/mL | MIC in combination (S. aureus; S. aureus 1122187): 0.48 µg/mL | MIC in combination (S. aureus; S. aureus 1122190): 3.9 µg/mL | MIC in combination (S. aureus; S. aureus 1122197): 0.48 µg/mL | MIC in combination (S. aureus; S. aureus 1125120): 15.6 µg/mL | MIC in combination (S. aureus; S. aureus 1132822): 0.97 µg/mL | MIC in combination (S. aureus; S. aureus 1142776): 0.48 µg/mL | MIC in combination (S. aureus; S. aureus 1144105): 0.48 µg/mL | MIC in combination (S. aureus; S. aureus UAMS-1): 0.48 µg/mL | MIC (S. aureus; S. aureus 1071788): 0.97 µg/mL | MIC (S. aureus; S. aureus 1094094): 3.9 µg/mL | MIC (S. aureus; S. aureus 1094140): 7.8 µg/mL | MIC (S. aureus; S. aureus 1094147): 7.8 µg/mL | MIC (S. aureus; S. aureus 1094166): 1.9 µg/mL | MIC (S. aureus; S. aureus 1094178): 7.8 µg/mL | MIC (S. aureus; S. aureus 1097612): 15.6 µg/mL | MIC (S. aureus; S. aureus 1097630): 7.8 µg/mL | MIC (S. aureus; S. aureus 1101442): 3.9 µg/mL | MIC (S. aureus; S. aureus 1103430): 1.9 µg/mL | MIC (S. aureus; S. aureus 1110936): 1.9 µg/mL | MIC (S. aureus; S. aureus 1111063): 7.8 µg/mL | MIC (S. aureus; S. aureus 1122181): 7.8 µg/mL | MIC (S. aureus; S. aureus 1122187): 1.9 µg/mL | MIC (S. aureus; S. aureus 1122190): 7.8 µg/mL | MIC (S. aureus; S. aureus 1122197): 1.9 µg/mL | MIC (S. aureus; S. aureus 1125120): 15.6 µg/mL | MIC (S. aureus; S. aureus 1132822): 3.9 µg/mL | MIC (S. aureus; S. aureus 1142776): 1.9 µg/mL | MIC (S. aureus; S. aureus 1144105): 1.9 µg/mL | MIC (S. aureus; S. aureus UAMS-1): 1.9 µg/mL | P. aeruginosa growth, 5 μM (P. aeruginosa PAO1; drug 5 μM in presence of 0.2 μg ml^−1 polymyxin B/trimethoprim): − | P. aeruginosa growth, 50 μM (P. aeruginosa PAO1; drug 50 μM in presence of 0.2 μg ml^−1 polymyxin B/trimethoprim): − | reduction in biofilm-associated CFU [1]: 5 log | activity against biofilm-associated cells [2]: neither tobramycin, polymyxin B/trimethoprim nor their combination displayed significant activity | reduction in CFU at hour 4 ([3]; 4 hours post-treatment): 2 log | reduction in CFU at 24 hr ([3]; 24 hours): 7 log
